Experimental data taken from patent publication US9352013B2, “Uses of bremelanotide in therapy for female sexual dysfunction” (Palatin Technologies, Inc., priority 2012, dated 2016).
Marks after values point to notes of the source that are not given here.

Test: Example 1: ambulatory blood pressure monitoring
Format: in vivo, human
Settings: for Pulse: treatment group difference (from placebo) in mean change from single-blind placebo: in bpm (unit assumed); for DBP: treatment group difference (from placebo) in mean change from single-blind placebo / SBP: treatment group difference (from placebo) in mean change from single-blind placebo: in mmHg (unit assumed); for HR-BP Product: treatment group difference (from placebo) in mean change from single-blind placebo: in mmHg·bpm (unit assumed)
Procedure: Ambulatory blood pressure monitoring was conducted following both placebo and randomized treatment group in-clinic administrations. Three periods of ambulatory blood pressure monitoring were included, the first period was from before to 24 hours after a single, in-clinic dose of placebo (to establish a baseline); the second and third periods occurred from before to 24 hours after each of 2 single, in-clinic doses of double-blind treatment, administered within 14 days of each other. Blood samples for pharmacokinetic analysis were collected before and at 0.5, 1.0, and 2.0 hours after each in-clinic bremelanotide single-dose treatment (double-blind only), to permit analysis of concentration-response relationships.
Mean changes in blood pressure were characterized in all subjects based on sequential supervised dosing of single-blind subcutaneous placebo and two doses of randomized study drug. The primary analysis for mean changes was the difference between treatment groups in the change from single-blind placebo to randomized drug (Visit 2 vs. Visits 5/7). There were between 86 to 100 subjects in each dose group.
Although there were an increased number of outliers for maximal changes from baseline in systolic blood pressure in drug-treated patients, the duration of these events was quite limited. The interrogation interval during ambulatory blood pressure monitoring assessments of 15 minutes allowed definition of the maximal duration of such excursions. […] The clinical significance of such changes, if any, is small.

[1] = 0.75 mg SC, interval 0-24 h, V5
[2] = 0.75 mg SC, interval 0-24 h, V7
[3] = 0.75 mg SC, interval 8-24 h, V5
[4] = 0.75 mg SC, interval 8-24 h, V7
[5] = 1.25 mg SC, interval 0-24 h, V5
[6] = 1.25 mg SC, interval 0-24 h, V7

For `CCCC[C@H](NC(C)=O)C(=O)N[C@H]1CC(=O)NCCCC[C@@H](C(=O)O)NC(=O)[C@H](Cc2c[nH]c3ccccc23)NC(=O)[C@H](CCCNC(=N)N)NC(=O)[C@@H](Cc2ccccc2)NC(=O)[C@H](Cc2c[nH]cn2)NC1=O` [bremelanotide, Ac-Nle-cyclo(-Asp-His-D-Phe-Arg-Trp-Lys)-OH], the “Systolic blood pressure shifts: ΔSBP >10 mmHg, Duration >30 minutes” value (0.75 mg SC) was 1, the “Systolic blood pressure shifts: ΔSBP >15 mmHg, Duration >30 minutes” value (0.75 mg SC) was 0 and the “Pulse: treatment group difference (from placebo) in mean change from single-blind placebo” value (0.75 mg SC, interval 0-4 h, V5) was −5.2*. The “DBP: treatment group difference (from placebo) in mean change from single-blind placebo” value (0.75 mg SC, interval 0-4 h, V5) was 1.5, the “SBP: treatment group difference (from placebo) in mean change from single-blind placebo” value (0.75 mg SC, interval 0-4 h, V5) was 1.8 and the “HR-BP Product: treatment group difference (from placebo) in mean change from single-blind placebo” value (0.75 mg SC, interval 0-4 h, V5) was −492.8*. For the same molecule, the “Pulse: treatment group difference (from placebo) in mean change from single-blind placebo” value (0.75 mg SC, interval 0-4 h, V7) was −4.8*, the “DBP: treatment group difference (from placebo) in mean change from single-blind placebo” value (0.75 mg SC, interval 0-4 h, V7) was 0.6 and the “SBP: treatment group difference (from placebo) in mean change from single-blind placebo” value (0.75 mg SC, interval 0-4 h, V7) was 1.1. For the same molecule, the “HR-BP Product: treatment group difference (from placebo) in mean change from single-blind placebo” value (0.75 mg SC, interval 0-4 h, V7) was −491.9*, the “Pulse: treatment group difference (from placebo) in mean change from single-blind placebo” value [1] was −2.2* and the “DBP: treatment group difference (from placebo) in mean change from single-blind placebo” value [1] was 1.1*. For the same molecule, the “SBP: treatment group difference (from placebo) in mean change from single-blind placebo” value [1] was 1.1, the “HR-BP Product: treatment group difference (from placebo) in mean change from single-blind placebo” value [1] was −187.7 and the “Pulse: treatment group difference (from placebo) in mean change from single-blind placebo” value [2] was −1.6. For the same molecule, the “DBP: treatment group difference (from placebo) in mean change from single-blind placebo” value [2] was 1.3*, the “SBP: treatment group difference (from placebo) in mean change from single-blind placebo” value [2] was 1.5 and the “HR-BP Product: treatment group difference (from placebo) in mean change from single-blind placebo” value [2] was −82.3. The “Pulse: treatment group difference (from placebo) in mean change from single-blind placebo” value (0.75 mg SC, interval 4-8 h, V5) was −6.2*, the “DBP: treatment group difference (from placebo) in mean change from single-blind placebo” value (0.75 mg SC, interval 4-8 h, V5) was 1.3 and the “SBP: treatment group difference (from placebo) in mean change from single-blind placebo” value (0.75 mg SC, interval 4-8 h, V5) was 0.9. For the same molecule, the “HR-BP Product: treatment group difference (from placebo) in mean change from single-blind placebo” value (0.75 mg SC, interval 4-8 h, V5) was −676.5*, the “Pulse: treatment group difference (from placebo) in mean change from single-blind placebo” value (0.75 mg SC, interval 4-8 h, V7) was −5.5* and the “DBP: treatment group difference (from placebo) in mean change from single-blind placebo” value (0.75 mg SC, interval 4-8 h, V7) was 1.7. For the same molecule, the “SBP: treatment group difference (from placebo) in mean change from single-blind placebo” value (0.75 mg SC, interval 4-8 h, V7) was 1.6, the “HR-BP Product: treatment group difference (from placebo) in mean change from single-blind placebo” value (0.75 mg SC, interval 4-8 h, V7) was −503.3* and the “Pulse: treatment group difference (from placebo) in mean change from single-blind placebo” value [3] was −0.4. For the same molecule, the “DBP: treatment group difference (from placebo) in mean change from single-blind placebo” value [3] was 1.0, the “SBP: treatment group difference (from placebo) in mean change from single-blind placebo” value [3] was 0.9 and the “HR-BP Product: treatment group difference (from placebo) in mean change from single-blind placebo” value [3] was 5.2. The “Pulse: treatment group difference (from placebo) in mean change from single-blind placebo” value [4] was 0.1, the “DBP: treatment group difference (from placebo) in mean change from single-blind placebo” value [4] was 1.3* and the “SBP: treatment group difference (from placebo) in mean change from single-blind placebo” value [4] was 1.6. For the same molecule, the “HR-BP Product: treatment group difference (from placebo) in mean change from single-blind placebo” value [4] was 114.9, the “Systolic blood pressure shifts: ΔSBP >10 mmHg, Duration >30 minutes” value (1.25 mg SC) was 2 and the “Systolic blood pressure shifts: ΔSBP >15 mmHg, Duration >30 minutes” value (1.25 mg SC) was 0. For the same molecule, the “Pulse: treatment group difference (from placebo) in mean change from single-blind placebo” value (1.25 mg SC, interval 0-4 h, V5) was −5.2*, the “DBP: treatment group difference (from placebo) in mean change from single-blind placebo” value (1.25 mg SC, interval 0-4 h, V5) was 3.0* and the “SBP: treatment group difference (from placebo) in mean change from single-blind placebo” value (1.25 mg SC, interval 0-4 h, V5) was 2.4*. For the same molecule, the “HR-BP Product: treatment group difference (from placebo) in mean change from single-blind placebo” value (1.25 mg SC, interval 0-4 h, V5) was −436.4*, the “Pulse: treatment group difference (from placebo) in mean change from single-blind placebo” value (1.25 mg SC, interval 0-4 h, V7) was −6.1* and the “DBP: treatment group difference (from placebo) in mean change from single-blind placebo” value (1.25 mg SC, interval 0-4 h, V7) was 2.2*. The “SBP: treatment group difference (from placebo) in mean change from single-blind placebo” value (1.25 mg SC, interval 0-4 h, V7) was 2.1*, the “HR-BP Product: treatment group difference (from placebo) in mean change from single-blind placebo” value (1.25 mg SC, interval 0-4 h, V7) was −583.3* and the “Pulse: treatment group difference (from placebo) in mean change from single-blind placebo” value [5] was −2.9*. The “DBP: treatment group difference (from placebo) in mean change from single-blind placebo” value [5] was 1.9*, the “SBP: treatment group difference (from placebo) in mean change from single-blind placebo” value [5] was 1.1 and the “HR-BP Product: treatment group difference (from placebo) in mean change from single-blind placebo” value [5] was −265.9. The “Pulse: treatment group difference (from placebo) in mean change from single-blind placebo” value [6] was −2.6*, the “DBP: treatment group difference (from placebo) in mean change from single-blind placebo” value [6] was 1.7* and the “SBP: treatment group difference (from placebo) in mean change from single-blind placebo” value [6] was 1.6*. The “HR-BP Product: treatment group difference (from placebo) in mean change from single-blind placebo” value [6] was −206.5, the “Pulse: treatment group difference (from placebo) in mean change from single-blind placebo” value (1.25 mg SC, interval 4-8 h, V5) was −6.1* and the “DBP: treatment group difference (from placebo) in mean change from single-blind placebo” value (1.25 mg SC, interval 4-8 h, V5) was 2.2*. The “SBP: treatment group difference (from placebo) in mean change from single-blind placebo” value (1.25 mg SC, interval 4-8 h, V5) was 1.4.
